Consider twelve compounds from patent US11866450B2, “Modulators of Cystic Fibrosis Transmembrane Conductance regulator, pharmaceutical compositions, methods of treatment, and process for making the modulators” (priority 2018, dated 2024).

For series [1] the following is noted: snar bond, DMSO.
Series [2] has as its target CFTR-mediated chloride transport (Homo sapiens, UniProt P13569). The class given is cell-based. Particulars: enteroid cells incubated with test compound 18-24 hours, acute 10 μM forskolin and 300 nM Compound III; for Max. Activity: % of chloride transport with 3 μM Compound A, 3 μM Compound II and 300 nM acute Compound III triple combination control. In outline:
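Human intestinal enteroid cells incubated with compound 18–24 h at 37° C., then membrane potential dye (FLIPR) read 15 min after chloride-free stimulation with 10 μM forskolin, 100 μM IBMX and 300 nM Compound III. AUC expressed as % of triple-combination control (3 μM Compound A, 3 μM Compound II, 300 nM Compound III).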

Like-named read-outs stand apart in the source and are kept apart here.

Sequence of CFTR-mediated chloride transport (P13569 whole entry, looked up): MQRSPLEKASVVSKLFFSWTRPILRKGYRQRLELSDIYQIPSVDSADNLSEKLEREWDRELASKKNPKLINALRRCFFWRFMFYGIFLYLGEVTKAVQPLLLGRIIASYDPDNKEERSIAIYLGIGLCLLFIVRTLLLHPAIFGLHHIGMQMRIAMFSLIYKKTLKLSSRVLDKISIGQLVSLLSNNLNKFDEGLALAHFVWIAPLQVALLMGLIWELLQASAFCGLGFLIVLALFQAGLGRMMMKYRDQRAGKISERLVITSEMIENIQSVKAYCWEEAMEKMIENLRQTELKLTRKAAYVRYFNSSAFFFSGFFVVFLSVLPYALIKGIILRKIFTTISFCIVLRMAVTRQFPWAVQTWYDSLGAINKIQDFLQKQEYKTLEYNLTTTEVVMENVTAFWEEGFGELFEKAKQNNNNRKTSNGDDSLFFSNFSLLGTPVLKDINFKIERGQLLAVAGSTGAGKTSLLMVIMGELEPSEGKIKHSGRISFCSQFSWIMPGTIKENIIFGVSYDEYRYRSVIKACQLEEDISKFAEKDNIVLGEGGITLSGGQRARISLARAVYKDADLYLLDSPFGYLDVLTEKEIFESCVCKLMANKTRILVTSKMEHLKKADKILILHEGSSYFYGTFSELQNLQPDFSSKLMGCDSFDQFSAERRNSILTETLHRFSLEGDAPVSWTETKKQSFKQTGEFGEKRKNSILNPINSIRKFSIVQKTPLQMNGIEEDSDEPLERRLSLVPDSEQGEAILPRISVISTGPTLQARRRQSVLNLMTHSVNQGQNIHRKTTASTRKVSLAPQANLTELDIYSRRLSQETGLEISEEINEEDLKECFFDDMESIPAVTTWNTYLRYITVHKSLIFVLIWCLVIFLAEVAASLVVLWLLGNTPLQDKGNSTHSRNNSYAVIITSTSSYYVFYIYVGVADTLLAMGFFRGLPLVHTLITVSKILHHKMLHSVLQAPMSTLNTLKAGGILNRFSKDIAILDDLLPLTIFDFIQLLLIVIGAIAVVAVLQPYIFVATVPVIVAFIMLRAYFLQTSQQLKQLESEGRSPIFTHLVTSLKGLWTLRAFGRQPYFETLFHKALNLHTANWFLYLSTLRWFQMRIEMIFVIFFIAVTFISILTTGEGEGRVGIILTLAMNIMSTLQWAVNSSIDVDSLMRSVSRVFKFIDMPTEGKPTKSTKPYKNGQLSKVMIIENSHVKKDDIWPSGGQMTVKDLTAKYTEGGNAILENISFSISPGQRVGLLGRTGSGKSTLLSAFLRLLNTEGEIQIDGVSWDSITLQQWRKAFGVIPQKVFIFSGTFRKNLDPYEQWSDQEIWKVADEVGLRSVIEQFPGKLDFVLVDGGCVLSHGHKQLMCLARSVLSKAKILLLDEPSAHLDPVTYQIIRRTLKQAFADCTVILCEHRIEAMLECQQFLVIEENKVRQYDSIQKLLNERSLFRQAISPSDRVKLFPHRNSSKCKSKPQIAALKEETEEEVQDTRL

What is called EC50 is the concentration at which the effect is half-maximal. In series [1] (from CC(C)C(COc1ccn(-c2ccc(C(=O)NS(=O)(=O)c3cccc(NCCCC4CCC(C)(C)N4C(=O)OC(C)(C)C)n3)c(Cl)n2)n1)C(C)C, 15-membered ring, K2CO3/CsF/3A MS, 83.8 mM, 140.0 °C, 2 steps), `CC(C)C(COc1ccn(-c2ccc3c(n2)N2CC(CCCNc4cccc(n4)S(=O)(=O)NC3=O)CC2(C)C)n1)C(C)C` (stereo not drawn) [Compound 220, 12,12-Dimethyl-8-{3-[3-methyl-2-(propan-2-yl)butoxy]-1H-pyrazol-1-yl}-2λ^6-thia-3,9,11,18,23-pentaazatetracyclo[17.3.1.111,14.05,10]tetracosa-1(23),5(10),6,8,19,21-hexaene-2,2,4-trione] had a ring closure, yield after HPLC of 39%. Also, in series [2], the EC50 is less than 1000 nM and the “Max. Activity” value was “+++ (+++ is >60%)”.
`CC1(C)C[C@@H]2CCCn3ccc(n3)S(=O)(=O)NC(=O)c3ccc(-n4ccc(OCCC(C)(C)C(F)(F)F)n4)nc3N1C2` [Compound 221, (18S)-20,20-Dimethyl-4-[3-(4,4,4-trifluoro-3,3-dimethylbutoxy)-1H-pyrazol-1-yl]-10λ^6-thia-1,3,9,14,22-pentaazatetracyclo[16.2.1.111,14.02,7]docosa-2,4,6,11(22),12-pentaene-8,10,10-trione] gave a ring closure, yield after HPLC in series [1] (from CC(C)(C)OC(=O)N1C[C@@H](CCCn2ccc(S(=O)(=O)NC(=O)c3ccc(-n4ccc(OCCC(C)(C)C(F)(F)F)n4)nc3Cl)n2)CC1(C)C, 14-membered ring, K2CO3/CsF/3A MS, 22.0 mM, 130.0 °C, 2 steps) of 21%. Moreover, in series [2], the EC50 was less than 1000 nM and the “Max. Activity” value is recorded as “+++ (+++ is >60%)”.
As to `CC(C)COc1cc(F)cc(-c2ccc3c(n2)N2C[C@@H](CCCNc4cccc(n4)S(=O)(=O)NC3=O)CC2(C)C)c1` [Compound 224, (14S)-8-[3-Fluoro-5-(2-methylpropoxy)phenyl]-12,12-dimethyl-2λ^6-thia-3,9,11,18,23-pentaazatetracyclo[17.3.1.111,14.05,10]tetracosa-1(22),5,7,9,19(23),20-hexaene-2,2,4-trione], the ring closure, yield after HPLC in series [1] (from CC(C)COc1cc(F)cc(-c2ccc(C(=O)NS(=O)(=O)c3cccc(NCCC[C@@H]4CN(C(=O)OC(C)(C)C)C(C)(C)C4)n3)c(Cl)n2)c1, 15-membered ring, K2CO3/CsF/3A MS, 30.6 mM, 150.0 °C, 2 steps) stood at 14%. In addition, in series [2], the EC50 was less than 1000 nM and the “Max. Activity” value was “+++ (+++ is >60%)”.
Take `CC(C)COc1cc(F)cc(-c2ccc3c(n2)N2C[C@@H](CCCn4ccc(n4)S(=O)(=O)NC3=O)CC2(C)C)c1` [Compound 226]: the ring closure, yield after HPLC in series [1] (from CC(C)COc1cc(F)cc(-c2ccc(C(=O)NS(=O)(=O)c3ccn(CCC[C@@H]4CN(C(=O)OC(C)(C)C)C(C)(C)C4)n3)c(Cl)n2)c1, 14-membered ring, K2CO3/CsF/3A MS, 15.0 mM, 150.0 °C, 2 steps) turned out to be 34%. Moreover, in series [2], the EC50 was less than 1000 nM and the “Max. Activity” value is recorded as “++ (++ is 30-60%)”.
The compound `CC(C)C(COc1ccn(-c2ccc3c(n2)N2C[C@@H](CCCNc4cccc(n4)S(=O)(=O)NC3=O)CC2(C)C)n1)C(C)C` [Compound 227, (14S)-12,12-Dimethyl-8-{3-[3-methyl-2-(propan-2-yl)butoxy]-1H-pyrazol-1-yl}-2λ^6-thia-3,9,11,18,23-pentaazatetracyclo[17.3.1.111,14.05,10]tetracosa-1(23),5(10),6,8,19,21-hexaene-2,2,4-trione] gave a ring closure, yield after HPLC in series [1] (from CC(C)C(COc1ccn(-c2ccc(C(=O)NS(=O)(=O)c3cccc(NCCC[C@@H]4CNC(C)(C)C4)n3)c(Cl)n2)n1)C(C)C, 15-membered ring, K2CO3/CsF/4A MS, 73.3 mM, 150.0 °C) of 20%. In series [2], the EC50 was less than 1000 nM and the “Max. Activity” value was “+++ (+++ is >60%)”.
For the compound `CC1(C)C[C@@H]2CCCNc3cccc(n3)S(=O)(=O)NC(=O)c3ccc(-n4ccc(OCCC(C5CCC5)C5CCC5)n4)nc3N1C2` [Compound 231, (14S)-8-[3-(3,3-dicyclobutylpropoxy)-1H-pyrazol-1-yl]-12,12-dimethyl-2λ^6-thia-3,9,11,18,23-pentaazatetracyclo[17.3.1.111,14.05,10]tetracosa-1(22),5,7,9,19(23),20-hexaene-2,2,4-trione], the ring closure, yield after HPLC in series [1] (from CC1(C)C[C@H](CCCNc2cccc(S(=O)(=O)NC(=O)c3ccc(-n4ccc(OCCC(C5CCC5)C5CCC5)n4)nc3Cl)n2)CN1, 15-membered ring, K2CO3/CsF/3A MS, 21.1 mM, 165.0 °C, 16.0 h) turned out to be 32%. In addition, in series [2], the concentration giving a half-maximal response (EC50) was less than 1000 nM and the “Max. Activity” value is given as “+++ (+++ is >60%)”.
`CC(C)C(COc1ccn(-c2ccc3c(n2)N2CC(CC2(C)C)OCCNc2cccc(n2)S(=O)(=O)NC3=O)n1)C(C)C` (stereo not drawn) [Compound 238, 12,12-dimethyl-8-{3-[3-methyl-2-(propan-2-yl)butoxy]-1H-pyrazol-1-yl}-15-oxa-2λ^6-thia-3,9,11,18,23-pentaazatetracyclo[17.3.1.111,14.05,10]tetracosa-1(23),5(10),6,8,19,21-hexaene-2,2,4-trione]: the ring closure, yield after HPLC in series [1] (from CC(C)C(COc1ccn(-c2ccc(C(=O)NS(=O)(=O)c3cccc(NCCOC4CN(C(=O)OC(C)(C)C)C(C)(C)C4)n3)c(Cl)n2)n1)C(C)C, 15-membered ring, K2CO3/CsF/3A MS, 78.4 mM, 140.0 °C, 2 steps) was determined as 44%. In series [2], the EC50 was less than 1000 nM and the “Max. Activity” value was “+++ (+++ is >60%)”.
Take `[2H]C1(CCOc2ccn(-c3ccc4c(n3)N3C[C@@H](CCCNc5cccc(n5)S(=O)(=O)NC4=O)CC3(C)C)n2)C2(CC2)C12CC2` [Compound 253, (14S)-8-(3-{2-[(7-deuterio)dispiro[2.0.2.1]heptan-7-yl]ethoxy}-1H-pyrazol-1-yl)-12,12-dimethyl-2λ^6-thia-3,9,11,18,23-pentaazatetracyclo[17.3.1.111,14.05,10]tetracosa-1(22),5,7,9,19(23),20-hexaene-2,2,4-trione]: the ring closure, yield after HPLC in series [1] (from [2H]C1(CCOc2ccn(-c3ccc(C(=O)NS(=O)(=O)c4cccc(NCCC[C@@H]5CN(C(=O)OC(C)(C)C)C(C)(C)C5)n4)c(Cl)n3)n2)C2(CC2)C12CC2, 15-membered ring, K2CO3/CsF/3A MS, 20.4 mM, 150.0 °C, 2 steps) is 43%. In series [2], the EC50 was less than 1000 nM and the “Max. Activity” value is given as “+++ (+++ is >60%)”.
For the compound `CC1(C)C[C@@H]2CCCNc3cccc(n3)S(=O)(=O)NC(=O)c3ccc(-n4ccc(O)n4)nc3N1C2` [Compound 256, (14S)-8-(3-hydroxy-1H-pyrazol-1-yl)-12,12-dimethyl-2λ^6-thia-3,9,11,18,23-pentaazatetracyclo[17.3.1.111,14.05,10]tetracosa-1(22),5,7,9,19(23),20-hexaene-2,2,4-trione], the ring closure, yield after HPLC in series [1] (from CC(C)(C)OC(=O)N1C[C@@H](CCCNc2cccc(S(=O)(=O)NC(=O)c3ccc(-n4ccc(OCC5C(C)(C)C5(C)C)n4)nc3Cl)n2)CC1(C)C, 15-membered ring, TFA/DCM, then K2CO3/CsF/3A MS, 23.1 mM, 150.0 °C, 2 steps) turned out to be 17%. Further, in series [2], the EC50 is more than 3000 nM and the “Max. Activity” value is listed as “++ (++ is 30-60%)”.
As for `CC1(C)C[C@@H]2CCCNc3cccc(n3)S(=O)(=O)NC(=O)c3ccc(-n4cccc(OCCC5(C(F)(F)F)CC5)c4=O)nc3N1C2` [Compound 268, (14S)-12,12-Dimethyl-8-(2-oxo-3-{2-[1-(trifluoromethyl)cyclopropyl]ethoxy}-1,2-dihydropyridin-1-yl)-2λ^6-thia-3,9,11,18,23-pentaazatetracyclo[17.3.1.111,14.05,10]tetracosa-1(23),5(10),6,8,19,21-hexaene-2,2,4-trione], the ring closure, yield after HPLC in series [1] (from CC(C)(C)OC(=O)N1C[C@@H](CCCNc2cccc(S(=O)(=O)NC(=O)c3ccc(-n4cccc(OCCC5(C(F)(F)F)CC5)c4=O)nc3Cl)n2)CC1(C)C, 15-membered ring, K2CO3/CsF/3A MS, 12.0 mM, 150.0 °C, 2 steps) was found to be 49%. Besides, in series [2], the EC50 was more than 3000 nM and the “Max. Activity” value is given as “++ (++ is 30-60%)”.
Compound `[2H]C([2H])(COc1ccn(-c2ccc3c(n2)N2C[C@@H](CCCNc4cccc(n4)S(=O)(=O)NC3=O)CC2(C)C)n1)CC1(C(F)(F)F)CC1` [Compound 270, (14S)-12,12-Dimethyl-8-(3-{3-[1-(trifluoromethyl)cyclopropyl]-2,2-dideuterio-propoxy}-1H-pyrazol-1-yl)-2λ^6-thia-3,9,11,18,23-pentaazatetracyclo[17.3.1.111,14.05,10]tetracosa-1(23),5(10),6,8,19,21-hexaene-2,2,4-trione] displayed a ring closure, yield after HPLC in series [1] (from [2H]C([2H])(COc1ccn(-c2ccc(C(=O)NS(=O)(=O)c3cccc(NCCC[C@@H]4CN(C(=O)OC(C)(C)C)C(C)(C)C4)n3)c(Cl)n2)n1)CC1(C(F)(F)F)CC1, 15-membered ring, TFA/DCM, then K2CO3/CsF/3A MS, 27.0 mM, 150.0 °C, 2 steps) of 44%. For the same compound, in series [2], the concentration for a half-maximal effect (EC50) was less than 1000 nM and the “Max. Activity” value is recorded as “+++ (+++ is >60%)”.
Take `CC1(C)CC2CCn3ccc(n3)S(=O)(=O)NC(=O)c3ccc(-n4ccc(OCCCC5(C(F)(F)F)CC5)n4)nc3N1C2` (stereo not drawn) [Compound 273, 19,19-Dimethyl-4-(3-{3-[1-(trifluoromethyl)cyclopropyl]propoxy}-1H-pyrazol-1-yl)-10λ^6-thia-1,3,9,14,21-pentaazatetracyclo[15.2.1.111,14.02,7]henicosa-2,4,6,11(21),12-pentaene-8,10,10-trione]: the ring closure, yield after HPLC in series [1] (from CC1(C)CC(CCn2ccc(S(=O)(=O)NC(=O)c3ccc(-n4ccc(OCCCC5(C(F)(F)F)CC5)n4)nc3Cl)n2)CN1, 13-membered ring, K2CO3/CsF/3A MS, 25.5 mM, 150.0 °C) is 11%. Further, in series [2], the EC50 was less than 1000 nM and the “Max. Activity” value is given as “+ (+ is <30%)”.
